Patent EP0297534B1, “Castanospermine esters and glycosides” (MERRELL DOW PHARMACEUTICALS INC., priority 1987, dated 1989)

How the values were obtained:
Intestinal Sucrase = biological target: T1, Intestinal Sucrase (Rattus norvegicus, UniProt P23739); experiment: Intestinal sucrase inhibition (glucose liberated from sucrose); type: biochemical; settings: crude homogenate from rat intestine; 1 hour preincubation with test compound; sucrose substrate, pH 5.9; read-out: IC₅₀ Intestinal Sucrase
T1 construct: Sucrase was isolated from rat intestine as a crude homogenate; from tissue; host or cells: rat intestine
T1 sequence (P23739 whole entry): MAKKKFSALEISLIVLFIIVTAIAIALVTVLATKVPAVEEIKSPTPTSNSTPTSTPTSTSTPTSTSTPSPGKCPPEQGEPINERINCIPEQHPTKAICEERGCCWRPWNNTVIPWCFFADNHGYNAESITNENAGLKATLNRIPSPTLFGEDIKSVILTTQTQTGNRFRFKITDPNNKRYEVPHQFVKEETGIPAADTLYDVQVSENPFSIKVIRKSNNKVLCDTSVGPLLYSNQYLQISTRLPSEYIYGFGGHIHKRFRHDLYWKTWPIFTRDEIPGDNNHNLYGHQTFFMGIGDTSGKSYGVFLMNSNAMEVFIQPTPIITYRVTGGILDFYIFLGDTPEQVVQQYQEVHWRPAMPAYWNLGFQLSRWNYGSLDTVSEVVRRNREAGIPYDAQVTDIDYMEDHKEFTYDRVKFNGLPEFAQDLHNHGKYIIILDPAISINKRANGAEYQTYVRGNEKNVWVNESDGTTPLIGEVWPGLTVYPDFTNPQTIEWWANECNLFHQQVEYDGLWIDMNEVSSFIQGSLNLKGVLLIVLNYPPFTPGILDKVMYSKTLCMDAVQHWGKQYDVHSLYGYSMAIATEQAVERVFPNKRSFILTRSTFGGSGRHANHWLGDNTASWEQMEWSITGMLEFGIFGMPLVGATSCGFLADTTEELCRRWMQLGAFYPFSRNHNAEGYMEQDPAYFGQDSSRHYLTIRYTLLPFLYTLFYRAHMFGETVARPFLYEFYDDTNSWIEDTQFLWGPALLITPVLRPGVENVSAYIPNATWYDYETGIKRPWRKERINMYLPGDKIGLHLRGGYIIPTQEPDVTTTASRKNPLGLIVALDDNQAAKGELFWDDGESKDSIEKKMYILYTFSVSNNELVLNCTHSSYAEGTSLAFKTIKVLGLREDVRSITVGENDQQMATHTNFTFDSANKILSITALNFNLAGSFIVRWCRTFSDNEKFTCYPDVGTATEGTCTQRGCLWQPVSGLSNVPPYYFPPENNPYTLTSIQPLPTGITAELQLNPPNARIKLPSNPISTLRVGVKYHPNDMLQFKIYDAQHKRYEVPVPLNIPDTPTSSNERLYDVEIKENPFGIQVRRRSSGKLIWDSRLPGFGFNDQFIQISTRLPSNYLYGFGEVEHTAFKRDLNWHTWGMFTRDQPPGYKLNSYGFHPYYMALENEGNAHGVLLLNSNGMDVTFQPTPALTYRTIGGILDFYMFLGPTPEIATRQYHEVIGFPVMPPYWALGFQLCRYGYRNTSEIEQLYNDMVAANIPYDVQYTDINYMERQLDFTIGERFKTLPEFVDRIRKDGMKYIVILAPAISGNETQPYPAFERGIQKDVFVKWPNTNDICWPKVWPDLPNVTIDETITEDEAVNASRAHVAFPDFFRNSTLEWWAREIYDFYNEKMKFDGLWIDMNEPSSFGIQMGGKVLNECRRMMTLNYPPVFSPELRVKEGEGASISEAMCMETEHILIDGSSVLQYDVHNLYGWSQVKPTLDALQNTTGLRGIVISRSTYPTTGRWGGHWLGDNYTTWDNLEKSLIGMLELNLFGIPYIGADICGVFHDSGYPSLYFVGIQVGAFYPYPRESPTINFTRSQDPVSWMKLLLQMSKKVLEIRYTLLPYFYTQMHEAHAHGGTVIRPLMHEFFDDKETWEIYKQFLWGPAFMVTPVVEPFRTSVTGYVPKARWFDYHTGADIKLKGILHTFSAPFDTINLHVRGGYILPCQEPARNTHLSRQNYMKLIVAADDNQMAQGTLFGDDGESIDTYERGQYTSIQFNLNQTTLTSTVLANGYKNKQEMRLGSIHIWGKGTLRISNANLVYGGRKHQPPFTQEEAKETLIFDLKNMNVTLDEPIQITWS
Description: Sucrase was isolated from rat intestine as a crude homogenate using the salt extraction procedure of Kolinska [Biochem. Biophys. Acta, 284, 235 (1984)]. Incubation mixtures contained 100 µl of enzyme preparation plus test compound and were incubated for 1 hour before the addition of 6.6 µmole sucrose in 100 µl 0.1 M sodium maleate, pH 5.9. The mixtures were incubated an additional 30 minutes and then heat inactivated at 80-100°C for 3 minutes. Denatured protein was removed by centrifugation. Glucose liberated was determined by glucose dehydrogenase reagents (Seragen Diagnostics).

Lysosomal α-Glucosidase = biological target: T2, Lysosomal α-Glucosidase (Rattus norvegicus, UniProt Q6P7A9); experiment: Lysosomal α-glucosidase inhibition (p-nitrophenyl-α-D-glucoside hydrolysis); type: biochemical; settings: partially purified from rat liver, 1 hour preincubation at 37°C, pH 4.2, read-out: IC₅₀ Lysosomal α-Glucosidase
T2 construct: Lysosomal α-glucosidase was isolated and partially purified from rat liver; from tissue; host or cells: rat liver
T2 sequence (Q6P7A9 70-953): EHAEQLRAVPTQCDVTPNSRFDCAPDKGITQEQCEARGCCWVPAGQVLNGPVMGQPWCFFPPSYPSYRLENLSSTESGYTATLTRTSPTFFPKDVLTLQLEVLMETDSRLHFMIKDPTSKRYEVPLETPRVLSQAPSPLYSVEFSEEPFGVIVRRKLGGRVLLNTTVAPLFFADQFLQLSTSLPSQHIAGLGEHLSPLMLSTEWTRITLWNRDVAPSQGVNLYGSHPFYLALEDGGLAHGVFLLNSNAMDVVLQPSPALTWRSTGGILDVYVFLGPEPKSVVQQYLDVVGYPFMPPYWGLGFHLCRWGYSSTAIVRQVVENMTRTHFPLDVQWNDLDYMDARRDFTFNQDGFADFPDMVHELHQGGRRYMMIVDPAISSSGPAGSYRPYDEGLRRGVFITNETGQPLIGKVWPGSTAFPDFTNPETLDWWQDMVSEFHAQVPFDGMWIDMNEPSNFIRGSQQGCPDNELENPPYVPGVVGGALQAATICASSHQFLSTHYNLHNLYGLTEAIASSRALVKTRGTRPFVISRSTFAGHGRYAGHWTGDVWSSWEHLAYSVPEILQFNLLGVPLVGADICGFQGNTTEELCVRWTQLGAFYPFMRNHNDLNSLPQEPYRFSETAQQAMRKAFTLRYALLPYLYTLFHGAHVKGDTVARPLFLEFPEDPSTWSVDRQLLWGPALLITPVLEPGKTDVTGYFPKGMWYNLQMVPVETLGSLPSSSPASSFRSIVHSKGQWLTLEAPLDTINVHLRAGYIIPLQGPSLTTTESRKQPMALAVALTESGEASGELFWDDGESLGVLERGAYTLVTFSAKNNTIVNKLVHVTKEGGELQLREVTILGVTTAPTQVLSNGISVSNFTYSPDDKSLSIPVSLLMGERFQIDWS
Description: Lysosomal α-glucosidase was isolated and partially purified from rat liver by the method of Dissous [Anal. Biochem., 116, 35 (1981)] through the ammonium sulfate fractionation steps. Enzyme was incubated with test compound for 1 hour at 37°C prior to the addition of p-nitrophenyl-α-D-glucoside in a final volume of 0.6 ml of 0.1 M sodium acetate, 25 mM potassium chloride, pH 4.2. Mixtures were incubated for an additional 30 minutes at 37°C and then heat inactivated at 90°C. Denatured protein was removed by centrifugation. One ml of 0.1 M sodium carbonate was added to the supernatant fraction and liberated nitrophenol determined by its absorption at 410 nm.

serum glucose elevation = experiment: Sucrose load test: inhibition of serum glucose elevation; type: in vivo, ICR Swiss mice; settings: for minimal effective dose: Mus musculus, 0.5 h, oral, test compound plus sucrose at 2.0 g/kg, serum glucose at 30 minutes post sucrose, amount needed to significantly inhibit serum glucose elevation; for Duration Of Action: oral test compound 1, 2 or 3 hours before sucrose at 2.0 g/kg, serum glucose 30 minutes post sucrose
Description: The compounds of the present invention were further tested in a sucrose load test to determine their ability to inhibit serum glucose elevation. The procedure can be summarized as follows.
ICR Swiss mice, fasted for 18-20 hours, were orally dosed with test compound plus sucrose at 2.0 g/kg. At 30 minutes post sucrose, the animals were sacrificed and their serum glucose concentrations were determined. […] To test duration of action, mice were orally dosed twice. The initial dose was test compound or vehicle. After 1, 2, or 3 hours, the mice were dosed with sucrose at 2.0 g/kg. After an additional 30 minutes post sucrose, the animals were sacrificed and their serum glucose concentrations were determined. Test compound activity was indicated by a significant difference of serum glucose concentration from the corresponding control. The activity observed can be summarized as follows: TABLE II

| SMILES | IC50 (Intestinal Sucrase) [µM] | IC50 (Lysosomal α-Glucosidase) [µM] | minimal effective dose (serum glucose elevation) [mg/kg] | Duration Of Action (serum glucose elevation) |
| --- | --- | --- | --- | --- |
| COc1ccc(C(=O)O[C@H]2CN3CC[C@H](O)[C@@H]3[C@@H](O)[C@@H]2O)cc1 [6-(4-Methoxybenzoate), (1S-(1α,6β,7α,8β,8aβ)]-octahydro-1,6,7,8-indolizinetetrol 6-(4-methoxybenzoate)] | 2 | 1000 | – | – |
| O=C(O[C@H]1[C@H](O)[C@H]2[C@@H](O)CCN2C[C@@H]1O)c1ccccc1 [7-Benzoate, [1S-(1α,6β,7α,8β,8aβ)]-octahydro-1,6,7,8-indolizinetetrol 7-benzoate] | 2 | 200 | 5 | – |
| O=C(O[C@H]1[C@H](O)[C@H]2[C@@H](O)CCN2C[C@@H]1O)c1ccc(F)cc1 [7-(4-Fluorobenzoate), [1S-(1α,6β,7α,8β,8aβ)]-octahydro-1,6,7,8-indolizinetetrol 7-(4-fluorobenzoate)] | 0.4 | 6 | 5 | 2 h |
| O=C(O[C@H]1[C@H](O)[C@H]2[C@@H](O)CCN2C[C@@H]1O)c1ccc(Cl)cc1Cl [7-(2,4-Dichlorobenzoate), [1S-(1α,6β,7α,8β,8aβ)]-octahydro-1,6,7,8-indolizinetetrol 7-(2,4-dichlorobenzoate)] | 0.4 | 100 | 20 | – |
| O=C(O[C@H]1[C@H](O)[C@H]2[C@@H](O)CCN2C[C@@H]1OC(=O)c1ccc(F)cc1)c1ccc(F)cc1 [6,7-bis(4-Fluorobenzoate), [1S-(1α,6β,7α,8β,8aβ)]-octahydro-1,6,7,8-indolizinetetrol 6,7-bis(4-fluorobenzoate)] | 4 | > 1000 | – | – |
| O=C(O[C@H]1CN2CC[C@H](O)[C@@H]2[C@@H](O)[C@@H]1O)c1ccccc1 [6-Benzoate, (1S-(1α,6β,7α,8β,8aβ)]-octahydro-1,6,7,8-indolizinetetrol 6-benzoate] | 0.08 | 800 | 1 | 1 hour hours |
| Cc1ccc(C(=O)O[C@H]2CN3CC[C@H](O)[C@@H]3[C@@H](O)[C@@H]2O)cc1 [6-(4-Methylbenzoate), [1S-(1α,6β,7α,8β,8aβ)]-octahydro-1,6,7,8-indolizinetetrol 6-(4-methylbenzoate)] | 0.3 | 1000 | – | – |
| OC[C@H]1O[C@H](O[C@H]2[C@H](O)[C@@H](O)CN3CC[C@H](O)[C@H]23)[C@H](O)[C@@H](O)[C@@H]1O [8-α-D-Glucopyranoside, 8-O-(α-D-glucopyranosyl)-[1S-(1α,6β,7α,8β,8aβ)]-octahydro-1,6,7,8-indolizinetetrol] | 0.05 | 300 | 1 | ≧3 hours |
| CCCC(=O)O[C@H]1[C@H](O)[C@@H](OC(=O)CCC)CN2CC[C@H](O)[C@H]12 [6,8-Dibutyrate, [1S-(1α,6β,7α,8β,8aβ)]-octahydro-1,6,7,8-indolizinetetrol 6,8-dibutanoate] | 0.2 | > 1000 | – | – |
| O=C(O[C@H]1CN2CC[C@H](O)[C@@H]2[C@@H](O)[C@@H]1O)c1ccc(F)cc1 [6-(4-Fluorobenzoate), [1S-(1α,6β,7α,8β,8aβ)]-octahydro-1,6,7,8-indolizinetetrol 6-(4-fluorobenzoate)] | 0.2 | 4 | 5 | – |
| O=C(O[C@H]1[C@H](O)[C@H]2[C@@H](O)CCN2C[C@@H]1OC(=O)c1ccccc1)c1ccccc1 [6,7-Dibenzoate, [1S-(1α,6β,7α,8β,8aβ)]-octahydro-1,6,7,8-indolizinetetrol 6,7-dibenzoate] | 2 | > 1000 | 20 | – |
